Data as given in US20260176289A1, “SMALL MOLECULE INHIBITORS OF KRAS PROTEINS” (Merck Sharp & Dohme LLC, priority 2022, published 2026).

Legend:
[1] = molecular target: KRAS-G12D (Homo sapiens, UniProt P01116, G12D); assay: SOS-catalyzed nucleotide exchange assay (Procedure A, TR-FRET), KRAS-G12D; assay type: biochemical; details: nucleotide exchange, read-out: KRAS G12D GNE IC50
Procedure, shortened: (§1)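 Signal ratio (520/495 nm, excitation 340 nm) reports Bodipy-GDP retention on biotinylated RAS after SOS-catalyzed exchange with 3 mM GTP. SOS was 40 nM, except 160 nM for G12V. Room-temperature exchange lasted 60 min (90 min for G12V), following a 60 min compound preincubation.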

[2] = test system: MKN-1 cells; assay: Cellular phospho-ERK assay, MKN-1 cells (amplified wild-type KRAS); assay type: cell-based; details: Homo sapiens, amplified wild-type KRAS, 2 hours, read-out: MKN1 pERK IC50
Procedure, shortened: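 Overnight-plated cells on collagen received test compound (up to 30 μM final, threefold steps, ten concentrations) for two hours. After lysis at room temperature, phosphorylated and total ERK were quantified together by Alpha SureFire, and IC50 is based on the phospho-to-total signal ratio.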

[3] = molecular target: HRAS (Homo sapiens, UniProt P01112); assay: SOS-catalyzed nucleotide exchange assay (Procedure A, TR-FRET), HRAS; assay type: biochemical; details: read-out: HRAS GNE IC50
Procedure, shortened: as §1

HRAS, sequence (P01112 with tags, fused parts or gaps): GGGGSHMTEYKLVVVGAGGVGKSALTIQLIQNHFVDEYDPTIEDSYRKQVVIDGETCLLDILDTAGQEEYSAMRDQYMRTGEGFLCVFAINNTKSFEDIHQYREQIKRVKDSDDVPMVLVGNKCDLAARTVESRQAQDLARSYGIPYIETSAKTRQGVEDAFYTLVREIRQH
KRAS-G12D, sequence (P01116 with tags, fused parts or gaps isoform P01116-2 G12D): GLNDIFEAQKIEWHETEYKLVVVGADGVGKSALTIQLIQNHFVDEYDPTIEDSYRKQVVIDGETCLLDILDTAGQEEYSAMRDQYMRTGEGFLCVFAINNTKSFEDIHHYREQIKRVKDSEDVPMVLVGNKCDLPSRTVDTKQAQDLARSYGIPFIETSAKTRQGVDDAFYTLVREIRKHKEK

C#Cc1c(F)ccc2cc(O)cc(-c3nccc4c5c(N6CCOC[C@@](C)(O)C6)nc(OC[C@@]67CCCN6C[C@H](F)C7)nc5n(C)c34)c12 [Ex-18, (S)-4-(8-(8-ethynyl-7-fluoro-3-hydroxynaphthalen-1-yl)-2-(((2R,7aS)-2-fluorotetrahydro-1H-pyrrolizin-7a(5H)-yl)methoxy)-9-methyl-9H-pyrido[4′,3′:4,5]pyrrolo[2,3-d]pyrimidin-4-yl)-6-methyl-1,4-oxazepan-6-ol]
IC50 [1]: 1.15 nM | IC50 [2]: 7.67 nM | IC50 [3]: 1820 nM
